Experimental findings from US10183007B2, “Method of producing proanthocyanidin oligomer” (Nagasaki University, priority 2005, dated 2019) are described below.

A short description of test [1]: TEAC (Trolox Equivalent Antioxidant Capacity) method. The class given is biochemical. The protocol: TEAC (Trolox Equivalent Antioxidant Capacity) method is a method of relatively evaluating antioxidative strength by converting antioxidative activity of a compound into antioxidative activity of Trolox which is a α-tocopherol derivative and the method is widely employed as an index of antioxidative activity.
To 36 μL of 70 μM metmyoglobin solution, 300 μL of ABTS solution and […] of 5 mM phosphate buffered saline were added. Subsequently, sample solution or 1.25 mM Yrolox solution was added thereto and gently mixed together for 5 minutes at 0° C. After 167 μL of 450 μM hydrogen peroxide solution was added thereto and mixed for 10 seconds, reaction was allowed to proceed for 5 minutes at room temperature. Absorbance at 734 nm was measured and the absorbance ratio between the sample and the Trolox solution was calculated to serve as TEAC value of the sample against […] Trolox.
As substance to be compared with Invention Substances C to E, grape seed polyphenol polymer was used.

The nature of test [2]: DPPH radical-scavenging activity assay. The class given is biochemical. Conditions: test concentration not given. The protocol: With respect to each sample, 1,1-diphenyl-2-picrylhydrazyl (DPPH) radical-scavenging activity was evaluated as follows. In a 96-hole microplate, 100 μL of DPPH solution (60 μM ethanol solution) was placed. Added thereto was 100 μL of ethanol solution of test sample or 100 μL of ethanol as control, and the mixture was gently mixed together and left standing at room temperature for 30 minutes. Then, absorbance at 520 nm was measured. The DPPH radical-scavenging activity was calculated by the following formula and 50% effective concentration (EC50) was calculated from The DPPH radical-scavenging activity value of test sample gradually diluted and its concentration. DPPH radical-scavenging activity(%)=[…] [Formula 1]
As substance to be compared with Invention Substance B, epicatechin and phloroglucinol (PL) were used. As substance to be compared with Invention Substances C to E, grape seed polyphenol polymer (GP) was used.
For orientation: The DPPH test is a chemical assay of radical scavenging.

[3] abbreviates: FIG. 11, TEAC value against Trolox.
The mark [4] stands for this setting: FIG. 8, comparison for Invention Substance B.

For the compound `Oc1ccc(/C=C/c2cc(O)c([C@H]3c4c(O)cc(O)cc4O[C@H](c4ccc(O)c(O)c4)[C@@H]3O)c(O)c2)cc1` [Invention Substance A, 4b-(4-resveratroyl)-(−)-epicatechin], the TEAC activity in test [1] (FIG. 10, TEAC value against 1.00 mM Trolox) was 1.33 mM. The compound further registered a DPPH activity in test [2] (FIG. 7, comparison for Invention Substance A) of 76.1%.
On to `Oc1cc(O)c([C@H]2c3c(O)cc(O)cc3O[C@H](c3ccc(O)c(O)c3)[C@@H]2O)c(O)c1` [Invention Substance B, 4-(2-phloroglucinol)-(−)-epicatechin], for which, in test [1] (setting [3]), the TEAC activity amounted to 1.44 mM. Also, in test [2] (setting [4]), the DPPH activity entry is on record as “significantly high scavenging activity as compared with both of the substances”.
On the same counts, the results for `Oc1cc(O)cc(O)c1` [phloroglucinol, reference compound] are 0.52 mM and “little such activity”.
